Experimental data from patent publication US20070160553A1, “Use of agents for the cosmetic treatment of keratin-containing material” (WELLA AG, priority 2004, published 2007).
Several values for one entry are separate records, joined by “and”; a condition that tells them apart may be missing. Identical values can stand only once. Like-named read-outs stand apart in the source and are kept apart here.

Assays:
[1] = Conventional hair-care effects (combability, luster, volume, friction); conditions: in appropriate formulations
Description: This is in stark contrast to the known hair-care actions of other representatives of this class of substances, for example of betaine (trimethylammonioacetate) or carnitine [3-hydroxy-4-(trimethylammonio)butyric acid]. […] Other hair-care criteria such as an increase in hair volume or an improvement in the hair fullness or hair styling were also not observed.
Tests for determining the triboelectric properties have also shown that depending on the use concentration of compounds of formulas (I) and (II) the electrostatic chargability of hair was reduced. […] This is particularly surprising considering that in no comparative test did the formulation containing as active ingredient a compound of formula (I) and (II) show a reduction in the mechanical coefficient of friction. […] The protective function therefore is independent of the typical hair-care criteria and consists only of attenuating the effects of hair-damaging factors.

[2] = bleached hair, cycles until 63.2% of hairs are broken
Description: The measurements of rubbing resistance make it possible to draw conclusions concerning the resistance of the hair to mechanical stresses. The measuring principle consists of exposing individual hair fibers to repeated (small) mechanical stresses and measuring the number of repeating cycles needed to make the material break. A higher number of stressing cycles indicates a higher resistance of the hair to mechanical stresses. The evaluation of the hair resistance test results, which initially consists only of determining the number of stressing cycles to hair breakage for each individual hair, is carried out by Weibull's reliability analysis. According to Weibull, the breakage frequency (here: hair breakage) can be described by the following equation: H=1−exp[−(x/Θ)]b linearized: lnln[1/(1−H)]=b(ln x)−b(ln Θ) H=breakage frequency (=cumulated hair breakage), normalized to 1 (1=100%) X=lifetime variable (=cycles to hair breakage) Θ=characteristic lifetime (number of cycles until 63.2% of the hairs are broken) b=shape parameter, slope of the fitted straight lines.
For the Weibull analysis, therefore, that data must be plotted as lnln(1/1−H) against Inx. After linear regression, the axial segment indicates b(ln Θ) and the slope gives b. The characteristic lifetime E is then obtained from exp[−(axial segment/slope)]. The longer the characteristic lifetime, the higher is the resistance of the hair to breakage.
Another important parameter for determining the condition of the hair or the degree of damage to the hair is the determination of the rubbing resistance as a measure of the mechanical weakening of the hair (see legend for FIG. 1) [sic].
To this end, after previous standardized bleaching, strands of human hair (of Caucasian origin), were subjected to the strongly weakening conditions of a permanent wave procedure or a hair tinting by standardized methods. Then, the ends of 20 individual hairs per sample, namely of 10 individual hairs per strand, were fastened to holders, and the rubbing resistance was measured.

[3] = active present in permanent wave products, compared to otherwise identically treated hair
Description: Tear strength is viewed as a parameter for determining damage to hair; the higher the force needed to tear a hair, the better is the hair quality.

[4] = shampoo as in Example 6, 2.0 wt. % active; 20 hairs; control without active 12.0
Description: The determination of the tear strength of hair, which is an indicator of the structural integrity of the hair cortex and thus a measure of the degree of damage, was carried out by tensile-elongation measurements common for these purposes. From each hair strand we selected 20 individual hairs and determined the individual hair diameters with a computer-controlled laser micrometer. Then, by means of a tensile-elongation tester (MTT 160/600 Series Miniature Tensile Tester, Serial No. 600.95.05.001, supplied by DIA-STRON Ltd, England), the force needed to tear the individual hairs was measured.
From these individual tear strength measurements which because of the different hair diameters gave different values, the bundle tensile strength (BTS) was calculated by taking 0.08 mm for a hair diameter (average diameter). By including the hair density, finally, the conversion into the unit of bundle tensile strength (cN/tex) was performed. The higher the numerical value of the bundle tensile strength, the lower is the hair damage.

## C[N+](C)(C)CC(=O)[O-] [betaine, trimethylammonioacetate]
[1]
  combability: pronounced improvement
  luster of the hair: definitely improved

## C[n+]1cccc(C(=O)[O-])c1 [1-methylpyridinium-3-carboxylate]
[2]; hair tinting agent + 0.1% active
  Characteristic Lifetime: increase
[2]; hair tinting agent + 0.1% active, listed as 1-methylpyridium-3-carboxylate
  Characteristic Lifetime: 568
[2]; hair tinting agent + 1% active
  Characteristic Lifetime: even higher than those shown by the chemically untreated (unbleached, natural) hair
[2]; hair tinting agent + 1% active, listed as 1-methyl-pyridinium-3-carboxylate
  Characteristic Lifetime: further increase
[2]; hair tinting agent + 1% active, listed as 1-methylpyridium-3-carboxytate
  Characteristic Lifetime: 643
[2]; permanent wave formulation with 0.5% active, listed as 1-methylpyridium-3-carboxylate
  Characteristic Lifetime: 546
[3]
  tear strength: significant increase
Bleached strands, hair-treatment preparation with 0.5% active, 5 minutes, vs untreated control
  hair strand volume after combing (electrostatic charge): obviously smaller volume than the untreated control hairs
[4]
  bundle tensile strength (BTS): 12.64±0.4 cN/tex and 12.64 cN/tex

## C[n+]1cccc(C(=O)[O-])c1.Cl [1-Methylpyridinium-3-carboxylate hydrochloride]
Preparation containing 1% as the hydrochloride
  antistatic effect: statistically probable antistatic effect
